From ChEMBL document CHEMBL1201862, “PubChem BioAssay data set” (2004)
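These data come from cells grown in 96-well plates and exposed to compound for 48 hours at five concentrations. Here, GI50 denotes the concentration required for 50% inhibition of growth.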 Calls of active or inactive are those of the source. Cut-off read from the data, not from the text of the source: active = GI50 up to about 1.1 µM and inactive = higher.

Experiments:
Assay in all cases: NCI-60 cell line screen, 48 h
ACHN = tested on: ACHN
CAKI-1 = tested on: CAKI-1
LOX IMVI = tested on: LOX IMVI
M14 = tested on: M14
MCF7 = tested on: MCF7
NCI/ADR-RES = tested on: NCI/ADR-RES
PC-3 = tested on: PC-3
TK-10 = tested on: TK-10
DMS-114 = tested on: DMS-114
DMS-273 = tested on: DMS-273
HOP-18 = tested on: HOP-18
HOP-92 = tested on: HOP-92
LXFL 529 = tested on: LXFL 529
M19-MEL = tested on: M19-MEL
NCI-H226 = tested on: NCI-H226
SNB-78 = tested on: SNB-78
KM12 = tested on: KM12
RXF 393 = tested on: RXF 393
SR = tested on: SR
DLD-1 = tested on: DLD-1

Compound	GI50 (ACHN)	GI50 (CAKI-1)	GI50 (LOX IMVI)	GI50 (M14)	GI50 (MCF7)	GI50 (NCI/ADR-RES)	GI50 (PC-3)	GI50 (TK-10)	GI50 (DMS-114)	GI50 (DMS-273)	GI50 (HOP-18)	GI50 (HOP-92)	GI50 (LXFL 529)	GI50 (M19-MEL)	GI50 (NCI-H226)	GI50 (SNB-78)	GI50 (KM12)	GI50 (RXF 393)	GI50 (SR)	GI50 (DLD-1)
CC(=O)NC(CCCCNC(=O)OC(C)(C)C)C(=O)O (stereo not given)	> 100 µM (inactive)	63.4 µM (inactive)	> 100 µM (inactive)	> 100 µM (inactive)	> 100 µM (inactive)	> 100 µM (inactive)	> 100 µM (inactive)	> 100 µM (inactive)	–	–	–	–	–	–	–	–	–	–	–	–
Clc1ccc(C2SCc3nc4ccccc4n32)cc1 (stereo not given)	30.1 µM (inactive)	16.8 µM (inactive)	14.9 µM (inactive)	18.5 µM (inactive)	–	–	–	30.1 µM (inactive)	5.57 µM (inactive)	15.4 µM (inactive)	23.3 µM (inactive)	2.54 µM (inactive)	18.7 µM (inactive)	19.9 µM (inactive)	19.4 µM (inactive)	29.9 µM (inactive)	–	–	–	–
CSC1=C(SC)C(=O)c2cn(C)c(=O)cc2C1=O	1.81 µM (inactive)	–	1.78 µM (inactive)	1.73 µM (inactive)	2.05 µM (inactive)	> 19.7 µM (inactive)	9.55 µM (inactive)	2.33 µM (inactive)	–	–	–	0.904 µM (active)	–	–	19.9 µM (inactive)	–	21.6 µM (inactive)	1.89 µM (inactive)	< 0.0332 µM (active)	–
Cc1cn(C2CC(O)C(Cn3cc(Cn4nc(Br)c(=O)[nH]c4=O)nn3)O2)c(=O)[nH]c1=O (stereo not given)	> 100 µM (inactive)	> 100 µM (inactive)	–	> 100 µM (inactive)	> 100 µM (inactive)	> 100 µM (inactive)	> 100 µM (inactive)	> 100 µM (inactive)	–	–	–	–	–	–	> 100 µM (inactive)	–	> 100 µM (inactive)	> 100 µM (inactive)	–	–
CSCCC(NOC(=O)Cc1ccccc1)P(=O)(O)c1ccccc1 (stereo not given)	> 100 µM (inactive)	> 100 µM (inactive)	> 100 µM (inactive)	> 100 µM (inactive)	> 100 µM (inactive)	> 100 µM (inactive)	> 100 µM (inactive)	> 100 µM (inactive)	–	–	–	> 100 µM (inactive)	–	–	> 100 µM (inactive)	–	–	–	> 100 µM (inactive)	–
COc1ccc(NC(=S)NNC(=O)c2nsc3ccccc23)cc1	43.9 µM (inactive)	–	34.4 µM (inactive)	17.8 µM (inactive)	–	–	–	43.4 µM (inactive)	32.1 µM (inactive)	26.1 µM (inactive)	–	17.4 µM (inactive)	39.4 µM (inactive)	33 µM (inactive)	–	41.7 µM (inactive)	37.3 µM (inactive)	22 µM (inactive)	31 µM (inactive)	–
CC1=CC(O)C(O)C2(C)C1CC1OC(=O)C(O)C3C(C)C(O)C4(O)OCC13C42 (stereo not given)	–	32.8 µM (inactive)	37.8 µM (inactive)	–	91.6 µM (inactive)	242 µM (inactive)	–	–	35.4 µM (inactive)	153 µM (inactive)	155 µM (inactive)	6.03 µM (inactive)	–	56 µM (inactive)	41.3 µM (inactive)	39.4 µM (inactive)	13.3 µM (inactive)	8.81 µM (inactive)	–	135 µM (inactive)
COC1CCC(CO)OO1 (stereo not given)	38.2 µM (inactive)	–	–	47.9 µM (inactive)	–	–	–	–	15.3 µM (inactive)	–	–	28.6 µM (inactive)	8.71 µM (inactive)	60.4 µM (inactive)	–	15.9 µM (inactive)	30.9 µM (inactive)	33.7 µM (inactive)	24.3 µM (inactive)	–
C[N+](C)(CCO)CCN1c2ccccc2Sc2ccccc21	> 10 µM (inactive)	> 10 µM (inactive)	> 10 µM (inactive)	> 10 µM (inactive)	> 10 µM (inactive)	> 10 µM (inactive)	> 10 µM (inactive)	> 10 µM (inactive)	–	–	–	–	–	–	> 10 µM (inactive)	–	> 10 µM (inactive)	> 10 µM (inactive)	> 10 µM (inactive)	–
O=C1OC2CC=CC1C2 (stereo not given)	–	–	> 100 µM (inactive)	–	> 100 µM (inactive)	> 100 µM (inactive)	–	–	> 100 µM (inactive)	> 100 µM (inactive)	> 100 µM (inactive)	> 100 µM (inactive)	–	> 100 µM (inactive)	> 100 µM (inactive)	> 100 µM (inactive)	> 100 µM (inactive)	> 100 µM (inactive)	–	> 100 µM (inactive)
CCOC(=O)CN1CCS/C1=N/C#N	–	> 100 µM (inactive)	–	–	> 100 µM (inactive)	> 100 µM (inactive)	–	–	> 100 µM (inactive)	> 100 µM (inactive)	> 100 µM (inactive)	> 60 µM (inactive)	–	> 100 µM (inactive)	> 100 µM (inactive)	> 100 µM (inactive)	> 100 µM (inactive)	> 100 µM (inactive)	–	> 100 µM (inactive)
CC(C)[C@](O)(C(=O)OCC1CC[N+]2([O-])CC[C@@H](O)C12)[C@H](C)O (stereo not given in full)	–	> 375 µM (inactive)	> 142 µM (inactive)	–	> 375 µM (inactive)	> 375 µM (inactive)	–	–	> 375 µM (inactive)	> 375 µM (inactive)	105 µM (inactive)	> 375 µM (inactive)	–	> 375 µM (inactive)	> 375 µM (inactive)	> 375 µM (inactive)	> 375 µM (inactive)	> 375 µM (inactive)	–	> 375 µM (inactive)
CC[C@]12C=CCN3CC[C@@]4(c5ccc(OC)cc5N(C)[C@H]4[C@@](O)(C(=O)OC)[C@@H]1OC(C)=O)[C@@H]32	–	15.5 µM (inactive)	> 200 µM (inactive)	–	147 µM (inactive)	156 µM (inactive)	–	–	140 µM (inactive)	> 140 µM (inactive)	> 200 µM (inactive)	46.2 µM (inactive)	–	57.5 µM (inactive)	132 µM (inactive)	195 µM (inactive)	> 200 µM (inactive)	96.8 µM (inactive)	–	> 200 µM (inactive)
Nc1ncnc2c1nnn2C1OC(CO)C(O)C1O (stereo not given)	–	4.5 µM (inactive)	1.8 µM (inactive)	–	2.48 µM (inactive)	8.97 µM (inactive)	–	–	3.64 µM (inactive)	2.62 µM (inactive)	2.69 µM (inactive)	7.14 µM (inactive)	–	8.57 µM (inactive)	3.71 µM (inactive)	37.6 µM (inactive)	4.21 µM (inactive)	–	–	1.36 µM (inactive)
